Data as given in patent US8673929B2, “4,6-di- and 2,4,6-trisubstituted quinazoline derivatives and pharmaceutical compositions useful for treating viral infections” (priority 2006, dated 2014).

How the values were obtained:
HCV replicon = assay: Anti-HCV replicon assay, EC50 (luciferase readout); format: cell-based; settings: Huh-7 HCV replicon cells, 3 days incubation, luciferase luminescence
Protocol: (§1) The anti HCV activity of the quinazoline derivatives of this invention was tested in a human hepatoma Huh-7 cell line harbouring a HCV replicon. The assay comprised the following steps:
(§2) Step 1: compound preparation and serial dilution • 1. for water soluble quinazoline derivatives, a volume of 500 μL of solution in cell media (DMEM, 10% FBS, P/S, L-Glutamine) was prepared with a concentration being twice the concentration of the starting final serial dilution concentration. A volume of 150 μL of the solution was added to the pre-specified wells in column 1 of a 96-well cell culture plate (PerkinElmer, white plate, cat. #6005181, for EC50 assay; black plate, cat. #6005182 for CC50 assay). The rest of the plate, columns 2-12, was filled with 100 μL of cell media. The plate was then placed on a Precision 2000 Workstation to start the serial dilution. Compounds were diluted three times each step from column 1 to column 10. Column 11 was used as a blank control (no compound added). • 2. for quinazoline derivatives requiring DMSO to dissolve, serial dilution is performed in 50% DMSO in a 384-well plate. A solution containing a compound at 100-fold concentration of the starting final serial dilution concentration was prepared in 50% DMSO and added to the pre-specified wells in column 1 of a polypropylene 384-well plate. The plate was then placed on a Precision 2000 Workstation to start the serial dilution. After the serial dilution, a volume of 2 μL of the solution was transferred from the 384-well plate to a 96-well cell culture plate containing 100 μL of cell media on a Biomek FX Workstation. The DMSO concentration in the final assay condition was 0.5% after cells are added to the plate and the total volume in each well is brought to 200 μL.
(§3) Step 2: to each well of the serial dilution plate prepared above, 100 μL of cell media containing 6000 suspended Huh-7 HCV replicon cells was added with a Multidrop workstation. The plates were incubated for 3 days at 37° C. with 5% CO2.
(§4) Step 3: detection: • a) for the EC50 assay, the media in a 96-well cell culture plate was aspirated with a Biotek EL405 plate-washer. A volume of 200 μL of a solution containing a 1:1 mixture of cell-lysis buffer (Promega, Luciferase Cell Culture Lysis 5× Reagent, cat. #E1531) and luciferase substrate solution (Promega, Luciferase Assay, cat.# E4550) was added to each well of the plate with Multidrop. The plate was incubated for 30 minutes at room temperature before the luminescence signal was measured with a TopCount plate-reader. • b) for the CC50 assay, a volume of 100 μL of pre-mixed CellTiter-Glo (Promega, cat.# G7572) solution is added directly to the cell culture in each well of the plate and the luminescence signal is measured with a TopCount plate-reader after 10 minutes of incubation at room temperature.
(§5) Results in the table below are expressed by the following data: • the 50% cytostatic concentration (CC50), i.e. the concentration that results in 50% inhibition of cell growth, and • the 50% effective concentration (EC50), i.e. the concentration that […].

[1] = CC50 assay in the anti-HCV replicon assay (CellTiter-Glo); format: cell-based, human; settings: human, Huh-7 hepatoma cells harbouring an HCV replicon; Huh-7 HCV replicon cells, 3 days incubation, CellTiter-Glo luminescence
Protocol: as §1, §2, §3, §4, §5

Molecule	EC50 (HCV replicon; Hepatitis C virus, 72 h) [µM]	CC50 at 3 days [1] [µM]	EC50 (HCV replicon) [µM]
CNC(=O)c1cccc(-c2ccc3nc(N)nc(OC(C)C)c3c2)c1 [Example 186, 3-(2-Amino-4-isopropoxy-quinazolin-6-yl)-N-methyl-benzamide]	0.3 to 1	10 to 20	–
CNC(=O)c1ccc(-c2ccc3nc(N)nc(OCc4ccccc4)c3c2)cc1 [Example 71, 4-(2-Amino-4-benzyloxy-quinazolin-6-yl)-N-methyl-benzamide]	0.3 to 1	> 20	–
Nc1nc(OCCF)c2cc(-c3ccc(C(=O)NC4CCCC4)cc3)ccc2n1 [Example 201, 4-[2-Amino-4-(2-fluoro-ethoxy)-quinazolin-6-yl]-N-cyclopentyl-benzamide]	1 to 10	10 to 20	–
CCOc1nc(N)nc2ccc(-c3ccc(C(=O)NC4CC4)c(Cl)c3)cc12 [Example 165, 4-(2-Amino-4-ethoxy-quinazolin-6-yl)-2-chloro-N-cyclopropyl-benzamide]	1 to 10	> 20	–
COCCOc1nc(N)nc2ccc(-c3ccc(C)cc3)cc12 [Example 55, 4-(2-Methoxy-ethoxy)-6-p-tolyl-quinazolin-2-ylamine]	1 to 10	> 20	–
CC(C)Oc1nc(N)nc2ccc(-c3ccsc3)cc12 [Example 89, 4-Isopropoxy-6-thiophen-3-yl-quinazolin-2-ylamine]	0.3 to 1	10 to 20	–
Nc1nc(OCCF)c2cc(-c3ccc(C(=O)NCc4ccccc4)cc3)ccc2n1 [Example 197, 4-[2-Amino-4-(2-fluoro-ethoxy)-quinazolin-6-yl]-N-benzyl-benzamide]	1 to 10	10 to 20	–
CCOc1nc(N)nc2ccc(-c3ccc(NC(C)=O)cc3)cc12 [Example 30, 2-amino-6-(4-acetamidophenyl)-4-ethoxy-quinazoline]	0.3 to 1	> 20	–
Nc1nc(OCCO)c2cc(-c3ccc(C(=O)NC4CCCC4)cc3)ccc2n1 [Example 189, 4-[2-Amino-4-(2-hydroxy-ethoxy)-quinazolin-6-yl]-N-cyclopentyl-benzamide]	1 to 10	> 20	–
N#Cc1cccc(-c2ccc3nc(N)nc(OCC4CCC4)c3c2)c1 [Example 119, 3-(2-Amino-4-cyclobutylmethoxy-quinazolin-6-yl)-benzonitrile]	1 to 10	10 to 20	–
CCOc1nc(N)nc2ccc(-c3ccc(C(=O)NC4=NCCS4)cc3)cc12 [Example 163, 4-(2-Amino-4-ethoxy-quinazolin-6-yl)-N-(4,5-dihydro-thiazol-2-yl)-benzamide]	1 to 10	> 20	–
CCOc1nc(N)nc2ccc(-c3ccc(-c4nnc(C)o4)cc3)cc12 [Example 187, 4-Ethoxy-6-[4-(5-methyl-[1,3,4]oxadiazol-2-yl)-phenyl]-quinazolin-2-ylamine]	1 to 10	> 20	–
Nc1nc(O[C@@H]2CCOC2)c2cc(-c3ccc(C(=O)NCCN4CCOCC4)cc3)ccc2n1 [Example 217, (R)-4-[2-Amino-4-(tetrahydro-furan-3-yloxy)-quinazolin-6-yl]-N-(2-morpholin-4-yl-ethyl)-benzamide]	< 0.3	> 20	–
CC(C)Oc1ncnc2ccc(-c3ccc(F)cc3)cc12 [Example 248, 6-(4-Fluorophenyl)-4-isopropoxy-quinazoline]	1 to 10	> 20	–
COCCOc1nc(N)nc2ccc(-c3ccsc3)cc12 [Example 61, 4-(2-Methoxy-ethoxy)-6-thiophen-3-yl-quinazolin-2-ylamine]	1 to 10	> 20	–
Nc1nc(OCC2CCC2)c2cc(-c3cccnc3)ccc2n1 [Example 118, 4-Cyclobutylmethoxy-6-pyridin-3-yl-quinazolin-2-ylamine]	0.3 to 1	10 to 20	–
Nc1nc(OCCN2CCOCC2)c2cc(-c3cccs3)ccc2n1 [Example 237, 4-(2-Morpholin-4-yl-ethoxy)-6-thiophen-2-yl-quinazolin-2-ylamine]	1 to 10	> 20	–
CC(C)CNC(=O)c1ccc(-c2ccc3nc(N)nc(OCCF)c3c2)cc1 [Example 198, 4-[2-Amino-4-(2-fluoro-ethoxy)-quinazolin-6-yl]-N-isobutyl-benzamide]	1 to 10	10 to 20	–

Molecule	EC50 (HCV replicon; Hepatitis C virus, 72 h) [µM]	CC50 at 3 days [1] [µM]	EC50 (HCV replicon) [µM]
CC(C)CNC(=O)c1ccc(-c2ccc3nc(N)nc(OCCO)c3c2)cc1 [Example 188, 4-[2-Amino-4-(2-hydroxy-ethoxy)-quinazolin-6-yl]-N-isobutyl-benzamide]	1 to 10	> 20	–
CNC(=O)c1ccc(-c2ccc3nc(N)nc(OC(C)C)c3c2)cc1 [Example 87, 4-(2-Amino-4-isopropoxy-quinazolin-6-yl)-N-methyl-benzamide]	0.3 to 1	10 to 20	–
CNC(=O)c1ccc(-c2ccc3nc(N)nc(OCCOC)c3c2)cc1 [Example 59, 4-(2-Amino-4-(2-methoxy-ethoxy)-quinazolin-6-yl)-N-methyl-benzamide]	1 to 10	> 20	–
CCOc1nc(N)nc2ccc(-c3ccc(C(=O)N4CCSC4)cc3)cc12 [Example 158, [4-(2-Amino-4-ethoxy-quinazolin-6-yl)-phenyl]-thiazolidin-3-yl-methanone]	1 to 10	> 20	–
CC(C)Oc1nc(N)nc2ccc(-c3cccc(F)c3F)cc12 [Example 75]	0.3 to 1	> 20	–
CC(C)Oc1nc(N)nc2ccc(-c3ccc(C(=O)NC4CC4)c(Cl)c3)cc12 [Example 183, 4-(2-Amino-4-isopropoxy-quinazolin-6-yl)-2-chloro-N-cyclopropyl-benzamide]	0.3 to 1	> 20	–
COCCOc1nc(N)nc2ccc(-c3ccc(Cl)s3)cc12 [Example 54, 6-(5-Chloro-thiophen-2-yl)-4-(2-methoxy-ethoxy)-quinazolin-2-ylamine]	1 to 10	> 20	–
COCCOc1ncnc2ccc(-c3ccc(F)cc3)cc12 [Example 35, 4-(2-methoxyethoxy)-6-(4-fluorophenyl)-quinazoline]	1 to 10	> 20	–
Cc1ccccc1-c1ccc2nc(N)nc(OCC3CCC3)c2c1 [Example 105, 4-Cyclobutylmethoxy-6-o-tolyl-quinazolin-2-ylamine]	1 to 10	10 to 20	–
CC(C)Oc1nc(N)nc2ccc(-c3ccc(C(=O)N4CCSCC4)cc3)cc12 [Example 180, [4-(2-Amino-4-isopropoxy-quinazolin-6-yl)-phenyl]-thiomorpholin-4-yl-methanone]	1 to 10	10 to 20	–
CCOc1nc(N)nc2ccc(-c3ccc(O)cc3)cc12 [Example 51, 4-(2-Amino-4-ethoxy-quinazolin-6-yl)-phenol]	0.3 to 1	10 to 20	–
CC(C)Oc1nc(N)nc2ccc(-c3ccc(C(=O)N4CCOCC4)cc3)cc12 [Example 128, [4-(2-Amino-4-isopropoxy-quinazolin-6-yl)-phenyl]-morpholin-4-yl-methanone]	1 to 10	> 20	–
CC(C)Oc1nc(N)nc2ccc(-c3cnc4ccccc4c3)cc12 [Example 101, 4-Isopropoxy-6-quinolin-3-yl-quinazolin-2-ylamine]	1 to 10	10 to 20	–
CCOc1nc(N)nc2ccc(-c3ccc(C(=O)Nc4ccccn4)cc3)cc12 [Example 160, 4-(2-Amino-4-ethoxy-quinazolin-6-yl)-N-pyridin-2-yl-benzamide]	1 to 10	> 20	–
CC(C)Oc1nc(N)nc2ccc(-c3cc(F)cc(F)c3)cc12 [Example 94, 6-(3,5-Difluoro-phenyl)-4-isopropoxy-quinazolin-2-ylamine]	1 to 10	> 20	–
CCCCNC(=O)c1ccc(-c2ccc3nc(N)nc(OCC)c3c2)cc1 [Example 152, 4-(2-Amino-4-ethoxy-quinazolin-6-yl)-N-butyl-benzamide]	0.3 to 1	> 20	–
4-(4-(2-methmethoxy)-quinazolin-6-yl)-N-methyl-benzamide [Example 246]	–	–	1 to 10
